Measured values published in patent US12527763B2, “Pyrrole amide compound and use thereof” (SUNSHINE LAKE PHARMA CO., LTD., priority 2019, dated 2026).
Converted amounts (≈) assume the structure as drawn. Structures can show the parent of a compound that is named as a salt. Where two headings read alike, the source gives them in different places. Each block holds one compound with its values, some of them ahead of it.

What was measured:
[1] = Pharmacokinetic experiment in cynomolgus monkey; format: in vivo, cynomolgus monkeys; conditions: oral, 3 mg/kg; for AUC(0-inf) / Cmax / Tmax / half-life: cynomolgus monkey, plasma, female cynomolgus monkeys
Description: Three female cynomolgus monkeys of 3.0-3.5 kg were taken and orally administered with the test compound at a dosage of 3 mg/kg; after the administration, blood was collected at the time points of 0.083, 0.25, 0.5, 1, 2, 4, 6, 8, 24, 32 and 48 hours. A standard curve was established within an appropriate range based on the sample concentration, and AB SCIEX API 5000 LC-MS/MS was used to determine the concentration of the test compounds in the plasma sample in the MRM mode. According to the drug concentration-time curve, WinNnonlin 6.3 software non-compartmental model method was used to calculate the pharmacokinetic parameters.

[2] = Pharmacokinetic experiment in Beagle dogs; format: in vivo; conditions: oral, 5.0 mg/kg; for AUC(0-inf) / Cmax / Tmax / half-life: dog, plasma
Description: Beagle dogs 8-10 kg were randomly divided into two groups, and the test compound was administered orally at a dosage of 5.0 mg/kg; after administration, blood was collected at the time points of 0.0833, 0.25, 0.5, 1.0, 2.0, 4.0, 6.0, 8.0, 24.0, 32.0 and 48.0 hours. A standard curve was established within a suitable range according to the sample concentration, and AB SCIEX API4000 LC-MS/MS was used to determine the concentration of the test compounds in the plasma sample in the MRM mode. According to the drug concentration-time curve, the WinNonLin 6.3 software non-compartmental model method was used to calculate the pharmacokinetic parameters.

Balb/c 3T3 fibroblast = conditions: PMDA Examination Report (Jan. 8, 2019); cited from earlier work
Balb/c 3T3 cells [3] = conditions: mouse, 1 h
Description: (§1) Preparation of the test compound solution: The test compound was dissolved in dimethyl sulfoxide to obtain a 10 mg/mL solution, and then diluted with dimethyl sulfoxide in multiples of 2.15 times into solutions of different concentrations.
(§2) Balb/c 3T3 cells were seeded on 96-well culture plates. After 24 hours of culture, the culture medium was discarded, different concentrations of test compounds or balanced salts (HBSS) solution containing positive control substance (chlorpromazine hydrochloride, CPZ) and vehicle control substance were added. Two culture plates of each concentration of the test compound and the positive control substance are a light (+UV) plate and a non-light (-UV) plate, respectively. After incubating for 1 hour, the light plate was placed under UVA with a light intensity of about 1.7 mw/cm2 until the light dose reached 5.0 J/cm2. The non-light plate was placed at room temperature and protected from light for the same time. After the light was over, the culture medium was replaced with fresh one and continuously cultured for 18-22 hours. About 3 hours before the culture was complete, the culture medium was replaced with a medium containing neutral red and serum-free. After incubation, neutral red eluent was added, the absorbance value (OD540) of each well at 540 nm was measured after shaking. The cell 50% inhibitory concentration (IC50), light stimulating factor (PIF) and/or average light effect (MPE) were calculated. The phototoxicity of the compound was determined according to the following criteria: PIF>5 is judged as positive for phototoxicity; 5>PIF>2 is judged as possible phototoxicity; 2>PIF is judged as no phototoxicity.

Balb/c 3T3 cells [4] = assay: In vitro 3T3 cell neutral red uptake phototoxicity test; conditions: for IC50: Mus musculus
Description: as §1, §2

[5] = target: mineralocorticoid receptor (MR) (Homo sapiens (Human), UniProt P08235); assay: In vitro activity test: MR LBD-Gal4 DBD dual luciferase reporter gene assay in HEK293 cells with aldosterone at EC80; format: cell-based; conditions: antagonism of aldosterone at EC80, 18 hours
From the text: Using the characteristics of luciferase binding to the substrate to generate a chemiluminescence reaction, the plasmid containing mineralocorticoid receptor (MR) ligand binding domain (LBD) fused with Gal4 DNA binding domain (DBD) and the firefly luciferase reporter gene plasmid under the control of Gal4 UAS (upstream activation sequence) are transfected into human embryonic kidney cells (HEK293). The changes in mineralocorticoid receptor activity before and after stimulation or the influence of different stimuli on mineralocorticoid receptor activity are judged by the level of firefly luciferase activity. At the same time, in order to reduce the impact of internal change factors on the accuracy of the experiment, the plasmid with Renilla luciferase gene is used as a control plasmid to transfect cells to provide an internal control for transcriptional activity, so that the test results are not interfered by changes in experimental conditions.
• 1) The HEK293 cells were collected after trypsinization and the cell density was adjusted to 500,000 cells/mL; • 2) FuGENE HD transfection reagent was added to the cell suspension; • 3) The above cell suspension was inoculated into a 96-well cell culture plate of 100 μL/well, and incubated for 24 hours at 37° C., 5% CO2; • 4) A series of concentrations of the test compound solution and EC80 concentration of agonist aldosterone were added to each well and incubated for 18 hours; • 5) Firefly and Renilla luciferase signals were detected by Promega dual luciferase reporter gene test system. Result Processing: • 1) After obtaining the firefly luciferase signal (F) and the Renilla luciferase signal (R), the Renilla luciferase signal was used for correction, that is, the F/R value was used for subsequent calculation of inhibition rate; • 2)% inhibition rate=(Max−X)/(Max−Min)×100%, wherein Max is the F/R value of the positive control well, Min is the F/R value of the negative control well, and X is the test compound well of different concentrations F/R value; • 3) IC50 was calculated by GraphPrism 5.0 mapping software.

[6] = BALB/c3T3, light or radiation study, read-out: IC50 (+UV)
[7] = BALB/c3T3, read-out: IC50 (−UV)

mineralocorticoid receptor (MR), sequence (P08235 726-964, species assumed): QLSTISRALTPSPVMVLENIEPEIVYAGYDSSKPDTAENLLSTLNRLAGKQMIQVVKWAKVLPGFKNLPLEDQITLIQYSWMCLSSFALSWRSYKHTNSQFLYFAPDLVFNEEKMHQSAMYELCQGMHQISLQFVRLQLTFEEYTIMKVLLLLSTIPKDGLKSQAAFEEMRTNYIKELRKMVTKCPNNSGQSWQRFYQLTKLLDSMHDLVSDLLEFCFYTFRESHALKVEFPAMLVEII

Compound: Cc1c(C(=O)Nc2ccc(S(C)(=O)=O)cc2)cn(CCO)c1-c1ccccc1C(F)(F)F (atropisomer, axis not shown) [CS-3150, Esaxerenone, reference compound]
- AUC(0-inf) [1]: 8990 ng·h/mL
- Cmax [1]: 741 ng/mL
- Tmax [1]: 1.67 h
- half-life [1]: 9.63 h
- AUC(0-inf) [2]: 45600 ng·h/mL
- Cmax [2]: 1580 ng/mL
- Tmax [2]: 2.33 h
- half-life [2]: 20.3 h
- light stimulus factor PIF (Balb/c 3T3 fibroblast): > 17
- phototoxicity (in words) (Balb/c 3T3 fibroblast): phototoxic

Compound: CN(C)CCCN1c2ccccc2Sc2ccc(Cl)cc21 [CPZ, chlorpromazine hydrochloride, reference compound]
- MPE (average light effect) (Balb/c 3T3 cells [3]): 0.368
- PIF (light stimulating factor) (Balb/c 3T3 cells [3]): 37.381
- IC50 (Balb/c 3T3 cells [4]; [6]): 0.982 µg/mL
- IC50 (Balb/c 3T3 cells [4]; [7]): 36.7 µg/mL

Compound: Cc1c(C(=O)Nc2ccc(S(C)(=O)=O)c(F)c2)cn(CCO)c1-c1ccccc1C(F)(F)F [Example 1, N-(3-Fluoro-4-(methylsulfonyl)phenyl)-1-(2-hydroxyethyl)-4-methyl-5-(2-(trifluoromethyl)phenyl)-1H-pyrrole-3-carboxamide]
- IC50 [5]: 0.00693 µM

Compound: Cc1c(C(=O)Nc2ccc([S@SP2](C)(=O)=O)c(F)c2)cn(CCO)c1-c1ccccc1C(F)(F)F [Example 2, (S)-1-(2-Hydroxyethyl)-4-methyl-N-(3-fluoro-4-(methylsulfonyl)phenyl)-5-(2-(trifluoromethyl)phenyl)-1H-pyrrole-3-carboxamide]
- AUC(0-inf) [1]: 22000 ng·h/mL
- Cmax [1]: 1040 ng/mL
- Tmax [1]: 5.3 h
- half-life [1]: 13 h
- pharmacokinetic properties compared to the control compound CS-3150 ([1]; cynomolgus monkeys): higher exposure, blood concentration and bioavailability
- AUC(0-inf) [2]: 145000 ng·h/mL
- Cmax [2]: 4690 ng/mL
- Tmax [2]: 3.33 h
- half-life [2]: 25.3 h
- pharmacokinetic properties compared with the control compound CS-3150 [2]: higher exposure, blood concentration and long half-life
- IC50 [5]: 0.0034 µM
- MPE (average light effect) (Balb/c 3T3 cells [4]; Balb/c 3T3 cells, +UV vs −UV): −0.044
- PIF (light stimulating factor) (Balb/c 3T3 cells [4]; Balb/c 3T3 cells, +UV vs −UV): 1.289
- IC50 (Balb/c 3T3 cells [4]; [6]): 49.6 µg/mL (≈ 102 µM)
- IC50 (Balb/c 3T3 cells [4]; [7]): 63.8 µg/mL (≈ 132 µM)
- in vitro phototoxicity (in words) (Balb/c 3T3 cells [4]; conclusion from Table 6): no in vitro phototoxicity
- Phototoxicity (Balb/c 3T3 cells [4]; judged from PIF): − (2>PIF is judged as no phototoxicity)

Compound: Cc1c(C(=O)Nc2ccc(S(C)(=O)=O)c(F)c2)cn(CC2(O)CC2)c1-c1ccccc1C(F)(F)F [Example 3, N-(3-Fluoro-4-(methylsulfonyl)phenyl)-1-((1-hydroxycyclopropyl)methyl)-4-methyl-5-(2-(trifluoromethyl)phenyl)-1H-pyrrole-3-carboxamide]
- IC50 [5]: 0.0476 µM

Next, values leading:

- IC50 [5]: 0.0215 µM
Compound: Cc1c(C(=O)Nc2ccc(S(C)(=O)=O)c(F)c2)cn(CC2CCO2)c1-c1ccccc1C(F)(F)F (stereo not shown) [Example 5, N-(3-Fluoro-4-(methylsulfonyl)phenyl)-4-methyl-1-(oxetan-2-ylmethyl)-5-(2-(trifluoromethyl)phenyl)-1H-pyrrole-3-carboxamide]

- IC50 [5]: 0.0303 µM
Compound: Cc1c(C(=O)Nc2ccc(S(C)(=O)=O)c(F)c2)cn(C2COC2)c1-c1ccccc1C(F)(F)F [Example 6, N-(3-Fluoro-4-(methylsulfonyl)phenyl)-4-methyl-1-(oxetan-3-yl)-5-(2-(trifluoromethyl)phenyl)-1H-pyrrole-3-carboxamide]

- IC50 [5]: 0.0845 µM
Compound: Cc1c(C(=O)Nc2ccc(S(C)(=O)=O)c(F)c2)cn(-c2cccnc2)c1-c1ccccc1C(F)(F)F [Example 7, N-(3-Fluoro-4-(methylsulfonyl)phenyl)-4-methyl-1-(pyridin-3-yl)-5-(2-(trifluoromethyl)phenyl)-1H-pyrrole-3-carboxamide]

- IC50 [5]: 0.0822 µM
Compound: Cc1c(C(=O)Nc2cc(F)c3c(c2)sc(=O)n3C)cn(CCO)c1-c1ccccc1C(F)(F)F [Example 8, N-(4-Fluoro-3-methyl-2-oxo-2,3-dihydrobenzo[d]thiazol-6-yl)-1-(2-hydroxyethyl)-4-methyl-5-(2-(trifluoromethyl)phenyl)-1H-pyrrole-3-carboxamide]
